Laboratory results taken from ChEMBL document CHEMBL1201862, “PubChem BioAssay data set” (2004).
Counter-ions that a name gives are not always drawn.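 All cell lines were grown in 96-well plates and treated with compound for 48 hours. Abbreviation: GI50, concentration required for 50% inhibition of growth.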 Activity calls are given as the source filed them. No stated cut-off is given here; in the data, active = GI50 up to about 1.1 µM and inactive = higher.

Columns and labels:
Experiment in all cases: growth of human tumour cells (NCI), 48 h
[1] = tested on: MOLT-4
[2] = tested on: OVCAR-3
[3] = tested on: TK-10
[4] = tested on: SW-620
[5] = tested on: ACHN
[6] = tested on: RXF 393
[7] = tested on: SN12C
[8] = tested on: HCT-15
[9] = tested on: CAKI-1
[10] = tested on: KM12
[11] = tested on: K562
[12] = tested on: HCT-116
[13] = tested on: SK-MEL-5
[14] = tested on: HCC 2998
[15] = tested on: NCI-H460
[16] = tested on: UACC-62

SMILES	GI50 [1]	GI50 [2]	GI50 [3]	GI50 [4]	GI50 [5]	GI50 [6]	GI50 [7]	GI50 [8]	GI50 [9]	GI50 [10]	GI50 [11]	GI50 [12]	GI50 [13]	GI50 [14]	GI50 [15]	GI50 [16]
CC1=NCCc2c1[nH]c1cc(O)ccc21 [HARMALOL HYDROCHLORIDE]	> 100 µM (inactive)	> 100 µM (inactive)	> 100 µM (inactive)	> 100 µM (inactive)	> 100 µM (inactive)	> 100 µM (inactive)	> 100 µM (inactive)	> 100 µM	> 100 µM (inactive)	> 100 µM (inactive)	> 100 µM (inactive)	> 100 µM (inactive)	> 100 µM (inactive)	> 100 µM (inactive)	> 100 µM (inactive)	> 100 µM (inactive)
Nc1nc(Cl)c2ncn(CCCC(c3ccccc3)P(=O)(O)O)c2n1 (centres undefined)	–	> 100 µM (inactive)	> 100 µM (inactive)	> 100 µM (inactive)	> 100 µM (inactive)	–	> 100 µM (inactive)	> 100 µM	> 100 µM (inactive)	> 100 µM (inactive)	> 100 µM (inactive)	> 100 µM (inactive)	> 100 µM (inactive)	> 100 µM (inactive)	> 100 µM (inactive)	> 100 µM (inactive)
CCCCCCCCCCCc1c(O)c(=O)c2c(oc3c(=O)c(CCCCCCCCCCC)c(O)c(=O)c3n2-c2ccc(N(C)C)cc2)c1=O	> 100 µM (inactive)	18.8 µM (inactive)	15.6 µM (inactive)	24 µM (inactive)	20.7 µM (inactive)	25 µM (inactive)	19.2 µM (inactive)	18.6 µM	15.7 µM (inactive)	12.9 µM (inactive)	52.8 µM (inactive)	17.6 µM (inactive)	18.7 µM (inactive)	–	18.6 µM (inactive)	18 µM (inactive)
CCCCCC#COC1CC(C)CC[C@@H]1C(C)C (some centres undefined)	–	> 100 µM (inactive)	> 100 µM (inactive)	18.5 µM (inactive)	78.2 µM (inactive)	36.3 µM (inactive)	> 100 µM (inactive)	> 100 µM	50.8 µM (inactive)	98.9 µM (inactive)	27.9 µM (inactive)	57.7 µM (inactive)	> 100 µM (inactive)	> 100 µM (inactive)	23.8 µM (inactive)	62.7 µM (inactive)
O=C(CCCCCCCCC(=O)OCCCn1cc(C(=O)NC(=O)OCc2ccccc2)c(=O)[nH]c1=O)OCCCn1cc(C(=O)NC(=O)OCc2ccccc2)c(=O)[nH]c1=O	> 100 µM (inactive)	> 100 µM (inactive)	> 100 µM (inactive)	> 100 µM (inactive)	> 100 µM (inactive)	> 100 µM (inactive)	> 100 µM (inactive)	> 100 µM	> 100 µM (inactive)	> 100 µM (inactive)	> 100 µM (inactive)	> 100 µM (inactive)	> 100 µM (inactive)	> 100 µM (inactive)	> 100 µM (inactive)	> 100 µM (inactive)
Clc1ccc(/N=N/c2nc3ccccc3nc2/N=N/c2ccc(Cl)cc2Cl)c(Cl)c1	29.4 µM (inactive)	70 µM (inactive)	> 100 µM (inactive)	> 100 µM (inactive)	45.9 µM (inactive)	> 100 µM (inactive)	> 100 µM (inactive)	> 100 µM	–	> 100 µM (inactive)	44.6 µM (inactive)	> 100 µM (inactive)	–	> 100 µM (inactive)	> 100 µM (inactive)	–
C/C(=N\NS(=O)(=O)c1ccc(C)cc1)C(CN1CCCCC1)C(c1ccccc1)c1c(O)c2ccccc2oc1=O (centres undefined)	–	> 100 µM (inactive)	> 100 µM (inactive)	70.6 µM (inactive)	> 100 µM (inactive)	39.6 µM (inactive)	> 100 µM (inactive)	> 100 µM	> 100 µM (inactive)	> 100 µM (inactive)	> 100 µM (inactive)	> 100 µM (inactive)	> 100 µM (inactive)	> 100 µM (inactive)	> 100 µM (inactive)	> 100 µM (inactive)
CC(C)NC1CCCCC2c3ccccc3C12O (centres undefined)	> 100 µM (inactive)	–	> 100 µM (inactive)	> 100 µM (inactive)	> 100 µM (inactive)	> 100 µM (inactive)	> 100 µM (inactive)	> 100 µM	–	> 100 µM (inactive)	> 100 µM (inactive)	> 100 µM (inactive)	> 100 µM (inactive)	–	> 100 µM (inactive)	> 100 µM (inactive)
COc1ccc(C2=NN(C(C)=O)c3nc4ccccc4nc3O2)cc1	> 100 µM (inactive)	> 100 µM (inactive)	21.3 µM (inactive)	> 100 µM (inactive)	24.4 µM (inactive)	–	> 100 µM (inactive)	46.6 µM	–	> 100 µM (inactive)	> 100 µM (inactive)	53.3 µM (inactive)	–	> 100 µM (inactive)	32.1 µM (inactive)	61.4 µM (inactive)
CS(=O)(=O)Sc1ccc(Cl)cc1	3.53 µM (inactive)	5.87 µM (inactive)	14 µM (inactive)	12.7 µM (inactive)	–	7.89 µM (inactive)	3.69 µM (inactive)	10.1 µM	10.7 µM (inactive)	7.19 µM (inactive)	10.2 µM (inactive)	5.7 µM (inactive)	7.83 µM (inactive)	11.2 µM (inactive)	10.9 µM (inactive)	–
C/C(=N\NC(=O)CC#N)c1c(O)cc(C)oc1=O	> 100 µM (inactive)	–	> 100 µM (inactive)	> 100 µM (inactive)	> 100 µM (inactive)	–	> 100 µM (inactive)	> 100 µM	> 100 µM (inactive)	> 100 µM (inactive)	> 100 µM (inactive)	> 100 µM (inactive)	> 100 µM (inactive)	> 100 µM (inactive)	> 100 µM (inactive)	> 100 µM (inactive)
Nc1nc(SCC(=O)c2ccccc2)c2[nH]cnc2n1	> 100 µM (inactive)	> 100 µM (inactive)	> 100 µM (inactive)	> 100 µM (inactive)	> 100 µM (inactive)	–	> 100 µM (inactive)	> 100 µM	> 100 µM (inactive)	> 100 µM (inactive)	> 100 µM (inactive)	> 100 µM (inactive)	> 100 µM (inactive)	> 100 µM (inactive)	> 100 µM (inactive)	> 100 µM (inactive)
CCCN(CCC)c1c([N+](=O)[O-])cc(C(=O)N(CC)CC)cc1[N+](=O)[O-]	16.4 µM (inactive)	14.5 µM (inactive)	29 µM (inactive)	28.6 µM (inactive)	25.5 µM (inactive)	17.4 µM (inactive)	22.4 µM (inactive)	21.4 µM	25.1 µM (inactive)	–	12.6 µM (inactive)	13.6 µM (inactive)	13.3 µM (inactive)	37.1 µM (inactive)	15.9 µM (inactive)	17.7 µM (inactive)
O=C1NC2OCC(O)C(O)C2O1 (centres undefined)	> 100 µM (inactive)	> 100 µM (inactive)	> 100 µM (inactive)	> 100 µM (inactive)	> 100 µM (inactive)	–	> 100 µM (inactive)	> 100 µM	> 100 µM (inactive)	> 100 µM (inactive)	> 100 µM (inactive)	> 100 µM (inactive)	> 100 µM (inactive)	> 100 µM (inactive)	> 100 µM (inactive)	> 100 µM (inactive)
CCCCC[C@@H]1CCCC2NC(CCCCCO[Si](c3ccccc3)(c3ccccc3)C(C)(C)C)CCC21 (some centres undefined)	12.6 µM (inactive)	16.6 µM (inactive)	18.7 µM (inactive)	14.6 µM (inactive)	13.5 µM (inactive)	11.3 µM (inactive)	14.7 µM (inactive)	11.7 µM	15.4 µM (inactive)	12.5 µM (inactive)	5.25 µM (inactive)	11.5 µM (inactive)	18.4 µM (inactive)	11.2 µM (inactive)	16.2 µM (inactive)	19.5 µM (inactive)
O=c1c(Sc2c(O)c3ccccc3c3ccccc3c2=O)c(O)c2ccccc2c2ccccc12	16.8 µM (inactive)	44.6 µM (inactive)	> 100 µM (inactive)	63.8 µM (inactive)	25.4 µM (inactive)	50.7 µM (inactive)	20.9 µM (inactive)	20.5 µM	80.4 µM (inactive)	93.1 µM (inactive)	33.7 µM (inactive)	–	29.9 µM (inactive)	32.7 µM (inactive)	17.6 µM (inactive)	29.2 µM (inactive)
C=CCc1cc(OC)c2c(c1)C(O)CC(c1ccc(OC)c(OC)c1)O2 (centres undefined)	38.6 µM (inactive)	> 100 µM (inactive)	> 100 µM (inactive)	> 100 µM (inactive)	> 100 µM (inactive)	–	> 100 µM (inactive)	> 100 µM	73.3 µM (inactive)	> 100 µM (inactive)	16.3 µM (inactive)	> 100 µM (inactive)	58.3 µM (inactive)	> 100 µM (inactive)	> 100 µM (inactive)	> 100 µM (inactive)
C1=c2ccccc2=C2C(=C(c3ccccc3)C(c3ccccc3)=NN2c2ccccc2)S1	> 100 µM (inactive)	–	> 100 µM (inactive)	91.4 µM (inactive)	> 100 µM (inactive)	> 100 µM (inactive)	> 100 µM (inactive)	> 100 µM	> 100 µM (inactive)	> 100 µM (inactive)	> 100 µM (inactive)	> 100 µM (inactive)	> 100 µM (inactive)	> 100 µM (inactive)	> 100 µM (inactive)	> 100 µM (inactive)
NCc1cc(O)c(O)c(O)c1	> 100 µM (inactive)	> 100 µM (inactive)	> 100 µM (inactive)	> 100 µM (inactive)	> 100 µM (inactive)	> 100 µM (inactive)	> 100 µM (inactive)	> 100 µM	> 100 µM (inactive)	> 100 µM (inactive)	43.1 µM (inactive)	63.5 µM (inactive)	> 100 µM (inactive)	–	> 100 µM (inactive)	59.3 µM (inactive)
